Experimental data as given in publication doi:10.1101/2021.04.08.439011v1 (biorxiv, 2021).

Experiments:
Details in all cases: 0.1 µM; binder
STK4 = STK4 (Homo sapiens, UniProt Q13043)
CAMK2D = CAMK2D (Homo sapiens, UniProt Q13557)
LZK = LZK (Homo sapiens, UniProt O43283)
MAP3K15 = MAP3K15 (Homo sapiens, UniProt Q6ZN16)
MEK4 = MEK4 (Homo sapiens, UniProt P45985)
SNARK = SNARK (Homo sapiens, UniProt Q9H093)
TLK1 = TLK1 (Homo sapiens, UniProt Q9UKI8)
AMPK-alpha1 = AMPK-alpha1 (Homo sapiens, UniProt Q13131)
MAP3K2 = MAP3K2 (Homo sapiens, UniProt Q9Y2U5)
DRAK2 = DRAK2 (Homo sapiens, UniProt O94768)
PIK3C2B = PIK3C2B (Homo sapiens, UniProt O00750)
PIM2 = PIM2 (Homo sapiens, UniProt Q9P1W9)
CAMK4 = CAMK4 (Homo sapiens, UniProt Q16566)
FGFR3 = FGFR3 (Homo sapiens, UniProt P22607)
MYO3B = MYO3B (Homo sapiens, UniProt Q8WXR4)
ULK2 = ULK2 (Homo sapiens, UniProt Q8IYT8)
CSNK1G3 = CSNK1G3 (Homo sapiens, UniProt Q9Y6M4)
MET(Y1235D) = MET(Y1235D) (Homo sapiens, UniProt P08581, Y1235D)
ANKK1 = ANKK1 (Homo sapiens, UniProt Q8NFD2)
PDGFRA = PDGFRA (Homo sapiens, UniProt P16234)
PRKCE = PRKCE (Homo sapiens, UniProt Q02156)
WNK1 = WNK1 (Homo sapiens, UniProt Q9H4A3)
CASK = CASK (Homo sapiens, UniProt O14936)
LOK = LOK (Homo sapiens, UniProt O94804)
TYRO3 = TYRO3 (Homo sapiens, UniProt Q06418)
ACVR1 = ACVR1 (Homo sapiens, UniProt Q04771)
WNK4 = WNK4 (Homo sapiens, UniProt Q96J92)
LKB1 = LKB1 (Homo sapiens, UniProt Q15831)
YES = YES (Homo sapiens, UniProt P07947)
PFTK1 = PFTK1 (Homo sapiens, UniProt O94921)
MERTK = MERTK (Homo sapiens, UniProt Q12866)
ERK2 = ERK2 (Homo sapiens, UniProt P28482)

MEK4, sequence (P45985 whole entry): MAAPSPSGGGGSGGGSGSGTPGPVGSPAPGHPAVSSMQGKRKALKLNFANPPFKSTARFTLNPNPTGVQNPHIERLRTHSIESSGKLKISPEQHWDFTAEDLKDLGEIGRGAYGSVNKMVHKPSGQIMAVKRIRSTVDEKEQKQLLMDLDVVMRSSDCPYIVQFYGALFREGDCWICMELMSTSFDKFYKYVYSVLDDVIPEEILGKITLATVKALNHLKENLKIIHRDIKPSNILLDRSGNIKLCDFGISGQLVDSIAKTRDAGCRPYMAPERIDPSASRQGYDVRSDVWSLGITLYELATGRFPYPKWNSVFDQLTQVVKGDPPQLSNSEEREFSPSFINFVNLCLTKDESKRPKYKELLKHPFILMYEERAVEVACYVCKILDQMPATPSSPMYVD
PDGFRA, sequence (P16234 whole entry): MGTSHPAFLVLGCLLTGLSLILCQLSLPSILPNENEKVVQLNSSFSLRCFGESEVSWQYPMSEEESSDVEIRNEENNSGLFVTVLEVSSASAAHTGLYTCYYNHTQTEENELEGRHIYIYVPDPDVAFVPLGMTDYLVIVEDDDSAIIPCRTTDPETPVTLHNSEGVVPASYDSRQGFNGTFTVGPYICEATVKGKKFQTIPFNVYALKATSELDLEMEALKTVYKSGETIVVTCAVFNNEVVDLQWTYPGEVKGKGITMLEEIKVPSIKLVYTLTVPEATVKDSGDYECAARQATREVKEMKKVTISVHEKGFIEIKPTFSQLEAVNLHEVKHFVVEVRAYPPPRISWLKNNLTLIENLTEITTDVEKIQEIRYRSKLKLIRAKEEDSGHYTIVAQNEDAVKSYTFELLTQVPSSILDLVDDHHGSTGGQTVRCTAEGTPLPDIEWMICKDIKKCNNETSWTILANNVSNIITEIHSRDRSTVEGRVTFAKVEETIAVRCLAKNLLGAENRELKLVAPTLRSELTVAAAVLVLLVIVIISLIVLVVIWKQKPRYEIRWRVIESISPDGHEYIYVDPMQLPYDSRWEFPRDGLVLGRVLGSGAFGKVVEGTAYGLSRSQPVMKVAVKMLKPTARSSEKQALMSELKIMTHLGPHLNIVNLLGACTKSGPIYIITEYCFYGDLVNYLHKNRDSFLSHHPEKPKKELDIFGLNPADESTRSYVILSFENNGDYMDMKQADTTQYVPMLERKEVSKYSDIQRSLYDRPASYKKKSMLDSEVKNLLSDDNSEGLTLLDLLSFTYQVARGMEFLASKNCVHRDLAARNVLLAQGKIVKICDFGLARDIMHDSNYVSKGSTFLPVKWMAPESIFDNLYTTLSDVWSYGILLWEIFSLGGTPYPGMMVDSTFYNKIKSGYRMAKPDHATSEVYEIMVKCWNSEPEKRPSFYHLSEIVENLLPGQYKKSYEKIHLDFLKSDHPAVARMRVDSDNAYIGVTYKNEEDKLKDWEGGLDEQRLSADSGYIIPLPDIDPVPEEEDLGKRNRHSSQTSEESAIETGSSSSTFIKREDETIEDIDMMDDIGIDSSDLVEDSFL
WNK1, sequence (Q9H4A3 whole entry): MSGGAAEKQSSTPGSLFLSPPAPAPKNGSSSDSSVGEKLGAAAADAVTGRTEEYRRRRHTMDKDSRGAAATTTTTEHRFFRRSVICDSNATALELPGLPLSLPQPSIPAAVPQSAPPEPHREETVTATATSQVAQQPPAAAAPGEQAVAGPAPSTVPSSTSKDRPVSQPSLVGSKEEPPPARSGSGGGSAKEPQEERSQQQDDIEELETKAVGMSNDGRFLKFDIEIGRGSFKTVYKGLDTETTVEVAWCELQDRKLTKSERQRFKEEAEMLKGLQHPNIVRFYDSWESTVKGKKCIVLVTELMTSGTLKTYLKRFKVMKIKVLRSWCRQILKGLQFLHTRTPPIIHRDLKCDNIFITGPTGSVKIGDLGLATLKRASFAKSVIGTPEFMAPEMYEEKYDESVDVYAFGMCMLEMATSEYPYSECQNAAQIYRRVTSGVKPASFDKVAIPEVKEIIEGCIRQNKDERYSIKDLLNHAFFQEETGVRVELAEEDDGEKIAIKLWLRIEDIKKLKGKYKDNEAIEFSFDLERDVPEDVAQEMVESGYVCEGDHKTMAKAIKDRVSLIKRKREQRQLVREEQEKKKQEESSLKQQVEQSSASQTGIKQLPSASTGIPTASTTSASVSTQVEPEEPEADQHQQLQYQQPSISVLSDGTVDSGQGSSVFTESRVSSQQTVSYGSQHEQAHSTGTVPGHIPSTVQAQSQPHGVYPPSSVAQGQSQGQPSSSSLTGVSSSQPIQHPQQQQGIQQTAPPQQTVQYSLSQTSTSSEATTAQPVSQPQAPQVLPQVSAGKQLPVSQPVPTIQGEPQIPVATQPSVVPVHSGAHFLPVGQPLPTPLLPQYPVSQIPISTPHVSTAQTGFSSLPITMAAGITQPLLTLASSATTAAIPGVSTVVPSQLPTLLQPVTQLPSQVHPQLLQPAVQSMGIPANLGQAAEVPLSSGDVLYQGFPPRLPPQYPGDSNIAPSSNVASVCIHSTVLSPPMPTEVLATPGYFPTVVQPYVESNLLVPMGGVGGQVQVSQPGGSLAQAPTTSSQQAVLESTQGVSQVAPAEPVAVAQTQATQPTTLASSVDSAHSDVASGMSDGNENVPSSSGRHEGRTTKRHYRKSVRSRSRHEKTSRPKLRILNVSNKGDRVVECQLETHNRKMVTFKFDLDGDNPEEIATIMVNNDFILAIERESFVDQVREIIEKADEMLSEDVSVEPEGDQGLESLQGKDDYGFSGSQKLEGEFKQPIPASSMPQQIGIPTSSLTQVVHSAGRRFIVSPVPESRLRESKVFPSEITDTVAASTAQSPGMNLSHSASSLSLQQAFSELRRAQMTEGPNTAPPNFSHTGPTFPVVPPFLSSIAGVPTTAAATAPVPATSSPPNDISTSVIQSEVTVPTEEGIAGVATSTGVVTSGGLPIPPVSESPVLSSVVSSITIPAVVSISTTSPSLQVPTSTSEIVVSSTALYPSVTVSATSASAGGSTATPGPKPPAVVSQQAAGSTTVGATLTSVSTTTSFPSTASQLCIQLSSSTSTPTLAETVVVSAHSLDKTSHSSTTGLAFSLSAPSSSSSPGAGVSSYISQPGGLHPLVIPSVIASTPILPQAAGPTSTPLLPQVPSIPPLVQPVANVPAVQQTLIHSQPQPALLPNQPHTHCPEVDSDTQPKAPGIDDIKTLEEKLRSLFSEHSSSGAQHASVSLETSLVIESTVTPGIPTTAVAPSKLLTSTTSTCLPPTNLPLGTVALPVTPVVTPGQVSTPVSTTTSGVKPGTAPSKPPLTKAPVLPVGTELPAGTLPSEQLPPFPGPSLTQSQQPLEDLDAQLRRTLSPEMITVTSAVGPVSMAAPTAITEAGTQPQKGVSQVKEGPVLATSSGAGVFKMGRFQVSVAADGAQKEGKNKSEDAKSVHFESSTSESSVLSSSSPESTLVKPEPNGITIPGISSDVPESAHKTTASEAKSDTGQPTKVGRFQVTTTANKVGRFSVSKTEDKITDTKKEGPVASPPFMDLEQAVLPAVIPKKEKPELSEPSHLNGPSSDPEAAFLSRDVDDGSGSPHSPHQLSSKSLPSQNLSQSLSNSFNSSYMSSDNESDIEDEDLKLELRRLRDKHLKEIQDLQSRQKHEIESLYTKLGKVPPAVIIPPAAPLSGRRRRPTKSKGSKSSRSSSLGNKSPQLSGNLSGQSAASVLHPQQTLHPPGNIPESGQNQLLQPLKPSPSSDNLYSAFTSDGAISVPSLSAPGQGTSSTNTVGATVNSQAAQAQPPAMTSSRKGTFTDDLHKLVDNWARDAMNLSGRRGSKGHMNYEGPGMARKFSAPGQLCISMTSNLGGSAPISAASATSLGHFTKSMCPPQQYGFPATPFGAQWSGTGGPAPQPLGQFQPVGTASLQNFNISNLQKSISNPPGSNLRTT
MERTK, sequence (Q12866 whole entry): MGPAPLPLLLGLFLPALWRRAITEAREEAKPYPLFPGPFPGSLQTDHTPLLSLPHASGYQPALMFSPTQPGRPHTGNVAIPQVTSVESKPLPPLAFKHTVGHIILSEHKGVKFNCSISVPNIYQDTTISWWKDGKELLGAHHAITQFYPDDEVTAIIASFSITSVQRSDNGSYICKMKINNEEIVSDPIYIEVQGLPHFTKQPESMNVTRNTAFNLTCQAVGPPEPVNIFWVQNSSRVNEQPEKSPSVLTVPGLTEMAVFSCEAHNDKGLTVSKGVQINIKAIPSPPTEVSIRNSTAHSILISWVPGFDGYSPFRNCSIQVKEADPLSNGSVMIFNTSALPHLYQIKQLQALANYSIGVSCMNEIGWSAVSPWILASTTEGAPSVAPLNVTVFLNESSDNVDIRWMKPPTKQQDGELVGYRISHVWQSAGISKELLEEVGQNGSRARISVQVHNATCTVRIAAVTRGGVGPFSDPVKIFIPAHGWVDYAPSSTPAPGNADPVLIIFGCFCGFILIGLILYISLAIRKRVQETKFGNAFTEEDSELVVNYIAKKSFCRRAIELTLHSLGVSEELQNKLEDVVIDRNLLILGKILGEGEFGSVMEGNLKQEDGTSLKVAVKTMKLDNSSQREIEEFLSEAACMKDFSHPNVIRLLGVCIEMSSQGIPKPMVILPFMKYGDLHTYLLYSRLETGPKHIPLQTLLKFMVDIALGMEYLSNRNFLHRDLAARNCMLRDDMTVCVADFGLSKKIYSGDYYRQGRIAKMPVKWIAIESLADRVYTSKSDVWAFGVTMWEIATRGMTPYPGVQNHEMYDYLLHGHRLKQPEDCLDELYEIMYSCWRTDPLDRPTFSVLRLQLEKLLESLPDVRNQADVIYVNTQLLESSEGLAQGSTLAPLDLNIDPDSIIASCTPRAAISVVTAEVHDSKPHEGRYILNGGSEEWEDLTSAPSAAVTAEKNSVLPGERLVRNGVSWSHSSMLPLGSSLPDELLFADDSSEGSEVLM

**Q.** What does the source list for `CNc1ncc2cc(-c3ccc(-c4cccc(C)n4)cc3Cl)c(=O)n(C[C@H]3OC[C@H](N)CO3)c2n1` [compound 6, G-5555]?
**A.** Percent Control (STK4): 90%; Percent Control (CAMK2D): 100%; Percent Control (LZK): 100%; Percent Control (MAP3K15): 72%; Percent Control (MEK4): 49%; Percent Control (SNARK): 19%; Percent Control (TLK1): 100%; Percent Control (AMPK-alpha1): 95%; Percent Control (MAP3K2): 97%; Percent Control (DRAK2): 66%; Percent Control (PIK3C2B): 88%; Percent Control (PIM2): 100%; Percent Control (CAMK4): 100%; Percent Control (FGFR3): 100%; Percent Control (MYO3B): 48%; Percent Control (ULK2): 100%; Percent Control (CSNK1G3): 100%; Percent Control (MET(Y1235D)): 100%; Percent Control (ANKK1): 91%; Percent Control (PDGFRA): 100%; Percent Control (PRKCE): 95%; Percent Control (WNK1): 100%; Percent Control (CASK): 96%; Percent Control (LOK): 37%; Percent Control (TYRO3): 96%; Percent Control (ACVR1): 97%; Percent Control (WNK4): 96%; Percent Control (LKB1): 100%; Percent Control (YES): 100%; Percent Control (PFTK1): 100%; Percent Control (MERTK): 95%; Percent Control (ERK2): 100%
